Tests used:
CDK9/CycT1 = target: T1, CDK9/CycT1 (Homo sapiens, UniProt P50750); test: CDK9/CycT1 high ATP kinase assay (TR-FRET, Method 1b); format: biochemical; conditions: for IC50: Method 1b, 2 mM ATP; for Selectivity high ATP CDK9 over high ATP CDK2: IC50 (high ATP CDK2)/IC50 (high ATP CDK9): Methods 1b and 2b, minimal values where CDK9 IC50 is at the assay limit
T1 construct: Recombinant full-length His-tagged human CDK9 and CycT1; His; purchased Invitrogen PV4131; host or cells: insect cells
T1 sequence (P50750 whole entry): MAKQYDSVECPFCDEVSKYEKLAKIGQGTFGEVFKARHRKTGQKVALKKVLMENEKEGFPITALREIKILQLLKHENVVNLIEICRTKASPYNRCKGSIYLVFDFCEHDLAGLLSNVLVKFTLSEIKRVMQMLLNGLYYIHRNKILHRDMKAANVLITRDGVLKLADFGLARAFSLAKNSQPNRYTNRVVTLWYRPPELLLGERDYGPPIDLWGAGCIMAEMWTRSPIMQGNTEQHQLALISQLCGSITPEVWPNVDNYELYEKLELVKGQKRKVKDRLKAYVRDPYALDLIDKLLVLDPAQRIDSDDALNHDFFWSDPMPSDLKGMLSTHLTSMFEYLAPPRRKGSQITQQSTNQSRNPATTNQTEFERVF
T1 sequence (O60563 whole entry partner): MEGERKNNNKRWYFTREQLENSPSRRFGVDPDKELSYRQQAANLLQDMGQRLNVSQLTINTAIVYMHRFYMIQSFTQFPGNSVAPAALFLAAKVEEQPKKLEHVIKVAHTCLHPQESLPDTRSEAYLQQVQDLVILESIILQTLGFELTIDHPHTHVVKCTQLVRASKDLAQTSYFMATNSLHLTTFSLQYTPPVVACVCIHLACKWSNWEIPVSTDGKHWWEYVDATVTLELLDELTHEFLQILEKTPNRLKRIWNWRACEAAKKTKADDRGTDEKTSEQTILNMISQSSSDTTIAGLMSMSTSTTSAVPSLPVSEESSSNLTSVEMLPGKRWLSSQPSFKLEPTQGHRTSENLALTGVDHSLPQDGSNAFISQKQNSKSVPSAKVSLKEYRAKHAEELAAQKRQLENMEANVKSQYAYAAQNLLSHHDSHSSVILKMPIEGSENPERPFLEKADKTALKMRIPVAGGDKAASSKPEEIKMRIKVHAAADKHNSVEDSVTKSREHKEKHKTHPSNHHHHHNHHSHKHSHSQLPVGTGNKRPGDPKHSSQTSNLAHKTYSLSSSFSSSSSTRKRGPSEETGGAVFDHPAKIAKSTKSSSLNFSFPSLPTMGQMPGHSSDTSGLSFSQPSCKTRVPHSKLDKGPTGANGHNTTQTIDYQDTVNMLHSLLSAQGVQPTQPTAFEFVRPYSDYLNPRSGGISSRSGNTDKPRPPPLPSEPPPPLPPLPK
Procedure: 1b. CDK9/CycT1 High ATP Kinase Assay
CDK9/CycT1-inhibitory activity of compounds of the present invention at a high ATP concentration after preincubation of enzyme and test compounds was quantified employing the CDK9/CycT1 TR-FRET assay as described in the following paragraphs.
Recombinant full-length His-tagged human CDK9 and CycT1, expressed in insect cells and purified by Ni-NTA affinity chromatography, were purchase from Invitrogen (Cat. No PV4131). As substrate for the kinase reaction biotinylated peptide biotin-Ttds-YISPLKSPYKISEG (C-terminus in amid form) was used which can be purchased e.g. from the company JERINI peptide technologies (Berlin, Germany). For the assay 50 nl of a 100 fold concentrated solution of the test compound in DMSO was pipetted into a black low volume 384 well microtiter plate (Greiner Bio-One, Frickenhausen, Germany), 2 μl of a solution of CDK9/CycT1 in aqueous assay buffer [50 mM Tris/HCl pH 8.0, 10 mM MgCl2, 1.0 mM dithiothreitol, 0.1 mM sodium ortho-vanadate, 0.01% (v/v) Nonidet-P40 (Sigma)] were added and the mixture was incubated for 15 min at 22° C. to allow pre-binding of the test compounds to the enzyme before the start of the kinase reaction. […] The concentration of CDK9/CycT1 was adjusted depending of the activity of the enzyme lot and was chosen appropriate to have the assay in the linear range, typical concentrations were in the range of 0.5 μg/mL. The reaction was stopped by the addition of 5 μl of a solution of TR-FRET detection reagents (0.2 μM streptavidine-XL665 [Cisbio Bioassays, Codolet, France] and 1 nM anti-RB(pSer807/pSer811)-antibody from BD Pharmingen [#558389] and 1.2 nM LANCE EU-W1024 labeled anti-mouse IgG antibody [Perkin-Elmer, product no. AD0077]) in an aqueous EDTA-solution (100 mM EDTA, 0.2% (w/v) bovine serum albumin in 100 mM HEPES pH 7.5).
The resulting mixture was incubated 1 h at 22° C. to allow the formation of complex between the phosphorylated biotinylated peptide and the detection reagents. Subsequently the amount of phosphorylated substrate was evaluated by measurement of the resonance energy transfer from the Eu-chelate to the streptavidine-XL. Therefore, the fluorescence emissions at 620 nm and 665 nm after excitation at 350 nm was measured in a HTRF reader, e.g. a Rubystar (BMG Labtechnologies, Offenburg, Germany) or a Viewlux (Perkin-Elmer). The ratio of the emissions at 665 nm and at […] was taken as the measure for the amount of phosphorylated substrate. The data were normalised (enzyme reaction without inhibitor=0% inhibition, all other assay components but no enzyme=100% inhibition).

B16F10 cells = test: Proliferation assay B16F10; format: cell-based, mouse; conditions: Mus musculus, B16-F10, 96 h; 4 days, crystal violet; read-out: Inhibition of B16F10 cell proliferation IC50
Procedure: Cultivated tumour cells (HeLa, human cervical tumour cells, ATCC CCL-2; NCI-H460, human non-small cell lung carcinoma cells, ATCC HTB-177; A2780, human ovarian carcinoma cells, ECACC #93112519; DU 145, hormone-independent human prostate carcinoma cells, ATCC HTB-81; HeLa-MaTu-ADR, multidrug-resistant human cervical carcinoma cells, EPO-GmbH Berlin; Caco-2, human colorectal carcinoma cells, ATCC HTB-37; B16F10, mouse melanoma cells, ATCC CRL-6475) were plated at a density of 5,000 cells/well (DU145, HeLa-MaTu-ADR), 3,000 cells/well (NCI-H460, HeLa), 2,500 cells/well (A2780), 1,500 cells/well (Caco-2), or 1,000 cells/well (B16F10) in a 96-well multititer plate in 200 μL of their respective growth medium supplemented 10% fetal calf serum. After 24 hours, the cells of one plate (zero-point plate) were stained with crystal violet (see below), while the medium of the other plates was replaced by fresh culture medium (200 μl), to which the test substances were added in various concentrations (0 μM, as well as in the range of 0.001-10 μM). The cells were incubated for 4 days in the presence of test substances. Cell proliferation was determined by staining the cells with crystal violet: the cells were fixed by adding 20 μl/measuring point of an 11% glutaric aldehyde solution for 15 minutes at room temperature. After three washing cycles of the fixed cells with water, the plates were dried at room temperature. The cells were stained by adding 100 μl/measuring point of a 0.1% crystal violet solution (pH 3.0). After three washing cycles of the stained cells with water, the plates were dried at room temperature. The dye was dissolved by adding 100 μl/measuring point of a 10% acetic acid solution. The extinction was determined by photometry at a wavelength of 595 nm. The change of cell number, in percent, was calculated by normalization of the measured values to the extinction values of the zero-point plate (=0%) and the extinction of the untreated (0 μm) cells (=100%). The IC50 values (inhibitory concentration at 50% of maximal effect) were determined by means of a 4 parameter fit. Non-adherent MOLM-13 human acute myeloid leukemia cells (DSMZ ACC 554) were seeded at a density of 5,000 cells/well in a 96-well multititer plate in 100 μL of growth medium supplemented 10% fetal calf serum. After 24 hours, cell viability of one plate (zero-point plate) was determined with the Cell Titre-Glo Luminescent Cell Viability Assay (Promega), while 50 μL of test compound containing medium was added to the wells of the other plates (final concentrations in the range of 0.001-1 μM and DMSO controls). Cell viability was assessed after 72-hour exposure with the Cell Titre-Glo Luminescent Cell Viability Assay (Promega). IC50 values (inhibitory concentration at 50% of maximal effect) were determined by means of a 4 parameter fit on measurement data which were normalized to vehicle (DMSO) treated cells (=100%) and measurement readings taken immediately before compound exposure (=0%).

Molecule	IC50 (CDK9/CycT1)	Selectivity high ATP CDK9 over high ATP CDK2: IC50 (high ATP CDK2)/IC50 (high ATP CDK9) (CDK9/CycT1)	IC50 (B16F10 cells)
CS(=N)(=O)Cc1cc2cc(c1)OCCCCOc1cc(F)ccc1-c1nc(ncc1F)N2 (racemic) [Example 1, (rac)-16,20-Difluoro-9-[(S-methylsulfonimidoyl)methyl]-2,3,4,5-tetrahydro-12H-13,17-(azeno)-11,7-(metheno)-1,6,12,14-benzodioxadiazacyclononadecine]	1.7 nM	125.3	14 nM
CCNC(=O)N=S(C)(=O)Cc1cc2nc(c1)OCCCOc1cc(F)ccc1-c1cc(ncc1F)N2 (racemic) [Example 17, (rac)-1-[{[15,19-difluoro-3,4-dihydro-2H,11H-10,6-(azeno)-12,16-(metheno)-1,5,11,13-benzodioxadiazacyclooctadecin-8-yl]methyl}(methyl)oxido-λ^6-sulfanylidene]-3-ethylurea]	2.7 nM	13.5	–
CC(=O)N=S(C)(=O)Cc1cc2nc(c1)OCCCOc1cc(F)ccc1-c1cc(ncc1F)N2 (racemic) [Example 18, (rac)-N-[{[15,19-difluoro-3,4-dihydro-2H,11H-10,6-(azeno)-12,16-(metheno)-1,5,11,13-benzodioxadiazacyclooctadecin-8-yl]methyl}(methyl)oxido-λ^6-sulfanylidene]acetamide]	2.9 nM	21.7	–
CN=S(C)(=O)Cc1cc2nc(c1)OCCCOc1cc(F)ccc1-c1cc(ncc1F)N2 (racemic) [Example 19, (rac)-8-[(N,S-dimethylsulfonimidoyl)methyl]-15,19-difluoro-3,4-dihydro-2H,11H-10,6-(azeno)-12,16-(metheno)-1,5,11,13-benzodioxadiazacyclooctadecine]	1.9 nM	81.7	–
CCOC(=O)N=S(C)(=O)Cc1cc2nc(c1)OCCCOc1cc(F)ccc1-c1cc(ncc1F)N2 (racemic) [Example 20, (rac)-ethyl [{[15,19-difluoro-3,4-dihydro-2H,11H-10,6-(azeno)-12,16-(metheno)-1,5,11,13-benzodioxadiazacyclooctadecin-8-yl]methyl}(methyl)oxido-λ^6-sulfanylidene]carbamate]	3.4 nM	13.2	–
CS(=O)(Cc1cc2nc(c1)OCCCOc1cc(F)ccc1-c1cc(ncc1F)N2)=NC(=O)OCCCl (racemic) [Example 21, (rac)-2-chloroethyl [{[15,19-difluoro-3,4-dihydro-2H,11H-10,6-(azeno)-12,16-(metheno)-1,5,11,13-benzodioxadiazacyclooctadecin-8-yl]methyl}(methyl)oxido-λ^6-sulfanylidene]carbamate]	5.9 nM	12.7	–
CS(=O)(=O)N=S(C)(=O)Cc1cc2nc(c1)OCCCOc1cc(F)ccc1-c1cc(ncc1F)N2 (racemic) [Example 22, (rac)-N-[{[15,19-difluoro-3,4-dihydro-2H,11H-10,6-(azeno)-12,16-(metheno)-1,5,11,13-benzodioxadiazacyclooctadecin-8-yl]methyl}(methyl)oxido-λ^6-sulfanylidene]methanesulfonamide]	2.7 nM	71.6	–
CS(=O)(Cc1cc2nc(c1)OCCCOc1cc(F)ccc1-c1cc(ncc1F)N2)=NS(=O)(=O)CCN (racemic) [Example 23, (rac)-2-amino-N-[{[15,19-difluoro-3,4-dihydro-2H,11H-10,6-(azeno)-12,16-(metheno)-1,5,11,13-benzodioxadiazacyclooctadecin-8-yl]methyl}(methyl)oxido-λ^6-sulfanylidene]ethanesulfonamide]	3.9 nM	69.5	–
CS(=O)(Cc1cc2nc(c1)OCCCOc1cc(F)ccc1-c1cc(ncc1F)N2)=NS(=O)(=O)CCN.O=C(O)C(F)(F)F (racemic) [Example 24, (rac)-2-{[{[15,19-difluoro-3,4-dihydro-2H,11H-10,6-(azeno)-12,16-(metheno)-1,5,11,13-benzodioxadiazacyclooctadecin-8-yl]methyl}(methyl)oxido-λ^6-sulfanylidene]sulfamoyl}ethanaminium trifluoroacetate]	1.8 nM	90.4	–
CS(=O)(Cc1cc2nc(c1)OCCCOc1cc(F)ccc1-c1cc(ncc1F)N2)=NC(=O)OCCN (racemic) [Example 25, (rac)-2-aminoethyl [{[15,19-difluoro-3,4-dihydro-2H,11H-10,6-(azeno)-12,16-(metheno)-1,5,11,13-benzodioxadiazacyclooctadecin-8-yl]methyl}(methyl)oxido-λ^6-sulfanylidene]carbamate]	3 nM	6.1	–
CSCc1cc2nc(c1)OCCOc1cc(F)ccc1-c1cc(ncc1F)N2 [Example 9, 14,18-Difluoro-7-[(methylsulfanyl)methyl]-2,3-dihydro-10H-9,5-(azeno)-11,15-(metheno)-1,4,10,12-benzodioxadiazacycloheptadecine]	65 nM	>307	–
NCCS(=O)(=O)Cc1cc2nc(c1)OCCCOc1cc(F)ccc1-c1cc(ncc1F)N2 [Example 26, 2-({[15,19-difluoro-3,4-dihydro-2H,11H-10,6-(azeno)-12,16-(metheno)-1,5,11,13-benzodioxadiazacyclooctadecin-8-yl]methyl}sulfonyl)ethanamine]	3.4 nM	13.0	–
({[15,19-difluoro-3,4-dihydro-2H,11H-10,6-(azeno)-12,16-(metheno)-1,5,11,13-benzodioxadiazacyclooctadecin-8-yl]methyl}sulfonyl)acetic acid [Example 27]	1.7 nM	3.7	–

Source: patent publication US9963464B2, “Macrocyclic compounds” (Bayer Pharma Aktiengesellschaft, priority 2014, dated 2018)
